{"source": "patent US20150374705A1", "about": "“Substances for treatment or relief of pain” (Shanghai Institues for Biological Sciences, priority 2012, published 2015)", "key": {"[1]": {"target": "T1, Human recombinant α5-GABAA receptor (Homo sapiens, UniProt P18507+P31644)", "T1 construct": "expressed in transfected cells; host or cells: 293 cell line", "details": "Jones et al. 2006; cited from earlier work"}, "[2]": {"system": "SNI model rats (neuropathic pain)", "assay": "Spared nerve injury (SNI) model, neuropathic pain, mechanical pain threshold", "type": "in vivo", "details": "rat; for Suppression of neuropathic pain (nociceptive threshold): 3 mg/kg injection, 0.5-24 hours after administration; for Suppression of neuropathic pain (nociceptive threshold) / Tolerance on continuous administration: 14 days after SNI; for Tolerance on continuous administration: continuous injection for 6 days, measured 1-3 hours after administration", "how_it_was_run": "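Male SD rats (200-250 g, n=6) with spared nerve injury (tibial and common peroneal ligated and cut, sural spared) were tested blind. Von Frey filaments (1-50 g) on the plantar paw gave the 50% withdrawal threshold. Compounds in 70% PEG400 were injected at 2-3 mg/kg; MRK016-M3 in 90% PEG400 was given orally at 0.3-10 mg/kg; unpaired t-test.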"}, "[3]": {"system": "α5-GABAA receptor in central nervous system", "details": "in vivo, Jones et al. 2006; cited from earlier work"}, "[4]": {"system": "brain microvessel endothelial cells co-cultivated with astrocyte", "assay": "In vitro blood-brain barrier model (BBBM)", "type": "in vitro ADME", "description": "Through in vitro blood-brain barrier model (BBBM), whether the substance to be measured could effectively pass blood brain barrier was detected. In this experiment, brain microvessl endothelial cells were co-cultivated with astrocyte, and then whether the substance to be measured could effectively pass cellular membrane was detected. For detailed method, please refer to related literature (Culot M et al., An in vitro blood-brain barrier model for high throughput (HTS) toxicological screening. Toxicol In Vitro. 2008 April; 22(3):799-811)."}, "[5]": {"target": "T2, Human recombinant GABAA receptor containing α2 subunit (α2, β3, γ2) (Homo sapiens, UniProt P18507+P47869)", "T2 construct": "expressed in transfected cells; host or cells: 293 cell line", "assay": "Competitive radioligand binding ([3H]Ro-0151788) on membranes of 293 cells, Ki", "details": "human recombinant GABAA subtype containing α2; read-out: Affinity, nM (α2)", "protocol": "Different subunits of GABAA receptor were expressed in cell lines, including human kidney epithelial cell line, 293 cell line or L(tk−) cell line. The cells were cultured in medium, and such cells were used as the cellular model for screening drugs to suppress pain. a subunit, β subunit and γ subunit are indispensable for one complete functional GABAA receptor.\nIn this example, the inventors established the following cellular models:\n(b) simultaneously expressing α1 subunit (GenBank accession number: NM_001127648.1), β3 subunit and γ2 subunit in 293 cell line, forming the GABAA receptor containing α1 subunit; • (c) simultaneously expressing α2 subunit (for the protein sequence, see GenBank accession number NM_000813.2), β3 subunit and γ2 subunit in 293 cell line, forming the GABAA receptor containing α2 subunit;\nEach of the (a) to (d) above could form a GABAA receptor with complete function.\nThen, the cellular membrane was extracted and the protein concentration was measured. The competitive binding of the substances to be measured and radiolabelled compounds (e.g. 1 nM [^3H]Ro-0151788) were detected respectively to calculate the Ki value of the substances to be measured, see the method described in literature (Ballard T M et al., RO4938581, a novel cognitive enhancer acting at GABAA alpha5 subunit-containing receptors. Psychopharmacology (Berl). 2009 January; 202(1-3): 207-23). If the binding inhibition constant Ki (nM) of α5-GABAA receptor with the candidate substances in experimental group is less than the Ki of the receptor containing other a subunit (α1 subunit, α2 subunit or α3 subunit), then the candidate substance is a potential drugs for preventing, relieving or treating pain. Many methods can be used by those skilled in the art to evaluate the binding capacity of the ligand of α5-GABAA receptor to the α5-GABAA receptor, including but not limiting to the method above."}, "[6]": {"system": "rat model of inflammatory and neuropathic pain", "details": "Munro G et al., Neuropharmacology 2011; cited from earlier work"}, "[7]": {"details": "human, Phase II, cited from earlier work"}}, "note": "“Also recorded” adds a separate entry of the source. Where two headings read alike, the source gives them in different places."}
{"smiles": "Cn1ncnc1COc1nn2c(-c3cc(CO)on3)nncc2c1C(C)(C)C", "note": "[MRK016-M3, (3-(3-tert-butyl-2-((2-methyl-2H-1,2,4-triazol-3-yl)methoxy)pyrazolo [1,5-d][1,2,4]triazin-7-yl)isoxazol-5-yl)methanol]", "values": [{"measurement": "Inverse agonist effect of α5-GABAA receptor", "setting": "[1]", "result": "significant inverse agonist effect"}, {"measurement": "Suppression of neuropathic pain, topical administration", "setting": "[2]; 100 microliter (1 mg/ml) injected to the feet, 10 days after SNI", "result": "still efficiently suppressed"}, {"measurement": "Suppression of neuropathic pain (pain threshold) in rats injected with control siRNA", "setting": "[2]; oral 3 mg/kg, control siRNA intrathecal, 3 mg/kg", "result": "significantly suppressed neuropathic pain; also recorded: significantly increased the pain threshold"}, {"measurement": "Suppression of neuropathic pain (pain threshold) in rats injected with siRNA specific to α5 subunit", "setting": "[2]; oral 3 mg/kg, α5-specific siRNA intrathecal, 3 mg/kg", "result": "no obvious effect; also recorded: did not significantly increase the nociceptive threshold"}, {"measurement": "Suppression of neuropathic pain (mechanical pain), dose-dependent experiment", "setting": "[2]; oral 10 mg/kg, 3 mg/kg and 1 mg/kg, 10 to 20 days after SNI, 1 hour after administration", "result": "significantly suppressed"}, {"measurement": "Binding to α5-GABAA receptor in brain / inhibition of (3H)Ro-15-1788 binding in center", "setting": "[3]", "result": "not capable of binding the α5-GABAA receptor in brain; also recorded: cannot significantly inhibit; also recorded: could hardly enter into the brain"}, {"measurement": "Inhibition rate of the binding of (3H)Ro-15-1788 in center", "setting": "[3]", "result": "about 12%"}, {"measurement": "Passing blood brain barrier", "setting": "[4]", "result": "cannot significantly pass blood brain barrier"}]}
{"smiles": "Cc1cc(-c2nnc3c4ccccc4c(OCC4=CC(C)C=N4)nn23)no1", "note": "(stereo not drawn) [α5IA]", "values": [{"measurement": "Suppression of neuropathic pain (nociceptive threshold)", "setting": "[2]; 3 mg/kg", "result": "significantly suppressed neuropathic pain"}, {"measurement": "Suppression of neuropathic pain (nociceptive threshold)", "setting": "[2]; listed as A5I, 3 mg/kg", "result": "efficiently suppressed neuropathic pain"}, {"measurement": "Tolerance on continuous administration", "setting": "[2]", "result": "did not generate tolerance response"}, {"measurement": "Tolerance on continuous administration", "setting": "[2]; listed as A5I", "result": "did not produce tolerance"}, {"measurement": "Ki", "setting": "[5]", "result": 0.58, "unit": "nM"}, {"measurement": "Effect on treating pain reported in literature", "setting": "[6]", "result": "no effect"}, {"measurement": "Toxicity in Phase II clinical trial", "setting": "[7]", "result": "certain toxic problems"}, {"measurement": "Toxicity in Phase II clinical trial", "setting": "[7]; listed as A5I", "result": "renal toxicity"}]}
